Common to all, as to assay: relative viability (nuclei count vs DMSO), 5 days (fraction); higher = more cells survive
Compound in the test “Mirin + Bortezomib”: N=C1NC(=O)/C(=C/c2ccc(O)cc2)S1 [Mirin] + CC(C)C[C@H](NC(=O)[C@H](Cc1ccccc1)NC(=O)c1cnccn1)B(O)O [Bortezomib] (partner 0.002 µM)
The method, boiled down: (§1)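 Lung cancer cell lines in 1536-well plates got either a single drug or a fixed anchor-drug dose together with five library-drug doses (not always all listed) in √10 steps, by pin tool, on the day after seeding. Nuclei were counted after 5 days, and relative viability is the treated-to-vehicle ratio of nuclei counts. Values are medians of duplicate plates.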

Compound in test [1]: CCC1=CN=CN=C1N2CCN(CC2)CC3=NC4=C(N3)C=C(C=C4)C(F)(F)F + CC(=O)Nc1cccc(-n2c(=O)n(C3CC3)c(=O)c3c(Nc4ccc(I)cc4F)n(C)c(=O)c(C)c32)c1 [Trametinib] (partner 0.02 µM)
Put shortly: as §1

Compound in the test “Mirin + Dasatinib”: N=C1NC(=O)/C(=C/c2ccc(O)cc2)S1 [Mirin] + Cc1nc(Nc2ncc(C(=O)Nc3c(C)cccc3Cl)s2)cc(N2CCN(CCO)CC2)n1 [Dasatinib] (partner 0.075 µM)
The method, boiled down:
as §1

Compound in the test “Mirin + Crizotinib”: N=C1NC(=O)/C(=C/c2ccc(O)cc2)S1 [Mirin] + C[C@@H](Oc1cc(-c2cnn(C3CCNCC3)c2)cnc1N)c1c(Cl)ccc(F)c1Cl [Crizotinib] (partner 1 µM)
Put shortly:
as §1

UMC-11: the relative viability with Mirin + Bortezomib (first compound 0.25 µM) worked out at 0.876; with Mirin + Bortezomib (first compound 0.7906 µM), 0.457; in the test with Mirin + Bortezomib (first compound 2.5 µM) it was 0.629; in the test with Mirin + Bortezomib (first compound 7.906 µM) it was 0.636; with Mirin + Bortezomib (first compound 25 µM) it was 0.547; in test [1] (first compound 0.04 µM), 0.721. Further, the relative viability in test [1] (first compound 0.1265 µM) came to 0.592; in test [1] (first compound 0.4 µM) it was 0.671; in test [1] (first compound 1.265 µM) it was 0.514; in test [1] (first compound 4 µM), 0.721; in the test with Mirin + Dasatinib (first compound 0.25 µM), 0.45; in the test with Mirin + Dasatinib (first compound 0.7906 µM) it was 0.424. Moreover, the relative viability was 0.493 in the test with Mirin + Dasatinib (first compound 2.5 µM); 0.415 with Mirin + Dasatinib (first compound 7.906 µM); 0.438 with Mirin + Dasatinib (first compound 25 µM); 0.499 in the test with Mirin + Crizotinib (first compound 0.25 µM); 0.578 in the test with Mirin + Crizotinib (first compound 0.7906 µM); 0.529 with Mirin + Crizotinib (first compound 2.5 µM). Also, the relative viability was 0.496 with Mirin + Crizotinib (first compound 7.906 µM) and 0.236 with Mirin + Crizotinib (first compound 25 µM).

The record behind these values is the supplement of paper PMC10307832.
